Test results published in patent US20050164370A1 (priority 2003, published 2005).

Experiments:
cytokinin receptor CRE1 = cytokinin receptor CRE1 (Arabidopsis thaliana, UniProt Q9C5U0, S567G/T1018A); settings: TM182-CRE1, DOLU+Glu agar, 1 nM to 100 μM tested, 30° C. for 30 hours
Experimental: (§1) A culture solution 10 μl (about 800 clones of yeast) of the transformed cells TM182-CRE1, TM182-AHK2, TM182-AHK2Δ and TM182-AHK3 produced by the example 12 was spotted on DOLU+Glu agar media containing 10 μM of trans-zeatin and cultured at 30° C. for 30 hours. After incubation, the growth state of the transformed cells was observed and photographed by a digital camera.
(§2) Culture solutions of the transformed cells TM182-CRE1, TM182-AHK2Δ and TM182-AHK2 produced by the reference example 1 were spotted on DOLU+Glu agar media containing cytokinin in a variety of concentrations (1 nM, 10 nM, 100 nM, 1 μM, 10 μM, 100 μM) and cultured at 30° C. for 30 hours. After incubation, the growth state of the transformed cells was observed and photographed by a digital camera.

cytokinin receptor AHK2Δ = target: T1, cytokinin receptor AHK2Δ (Arabidopsis thaliana, UniProt Q9C5U2); settings: TM182-AHK2Δ, DOLU+Glu agar, 1 nM to 100 μM tested, 30° C. for 30 hours
T1 sequence (Q9C5U2 196-1176): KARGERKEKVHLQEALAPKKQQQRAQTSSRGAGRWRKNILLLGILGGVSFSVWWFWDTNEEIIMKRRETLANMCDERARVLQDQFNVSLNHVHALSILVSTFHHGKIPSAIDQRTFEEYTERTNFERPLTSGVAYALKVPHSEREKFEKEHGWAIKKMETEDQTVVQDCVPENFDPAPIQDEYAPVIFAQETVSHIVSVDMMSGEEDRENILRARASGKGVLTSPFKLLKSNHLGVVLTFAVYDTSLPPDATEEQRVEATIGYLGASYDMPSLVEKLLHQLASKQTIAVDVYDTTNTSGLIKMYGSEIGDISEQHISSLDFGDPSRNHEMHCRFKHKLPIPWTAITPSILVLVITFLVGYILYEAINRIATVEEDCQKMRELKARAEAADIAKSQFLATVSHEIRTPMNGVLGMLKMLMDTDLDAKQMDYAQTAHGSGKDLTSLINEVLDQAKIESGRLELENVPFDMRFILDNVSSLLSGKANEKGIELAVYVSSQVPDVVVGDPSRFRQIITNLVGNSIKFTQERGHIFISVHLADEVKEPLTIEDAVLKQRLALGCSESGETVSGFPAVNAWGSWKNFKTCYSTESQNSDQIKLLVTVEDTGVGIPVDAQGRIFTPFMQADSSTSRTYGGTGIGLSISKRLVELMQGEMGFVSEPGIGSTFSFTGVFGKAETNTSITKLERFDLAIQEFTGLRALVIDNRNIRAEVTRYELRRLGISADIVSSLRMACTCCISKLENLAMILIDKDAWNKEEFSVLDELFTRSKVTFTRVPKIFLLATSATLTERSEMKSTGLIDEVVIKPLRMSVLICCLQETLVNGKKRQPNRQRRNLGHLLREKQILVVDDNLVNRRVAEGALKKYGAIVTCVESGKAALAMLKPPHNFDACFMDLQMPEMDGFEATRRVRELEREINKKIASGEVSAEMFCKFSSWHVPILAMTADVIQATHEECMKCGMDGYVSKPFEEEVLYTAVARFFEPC
Experimental: as §1, §2

cytokinin receptor AHK2 = target: T2, cytokinin receptor AHK2 (Arabidopsis thaliana, UniProt Q9C5U2); settings: TM182-AHK2, DOLU+Glu agar, 1 nM to 100 μM tested, 30° C. for 30 hours
T2 sequence (Q9C5U2 1-1176): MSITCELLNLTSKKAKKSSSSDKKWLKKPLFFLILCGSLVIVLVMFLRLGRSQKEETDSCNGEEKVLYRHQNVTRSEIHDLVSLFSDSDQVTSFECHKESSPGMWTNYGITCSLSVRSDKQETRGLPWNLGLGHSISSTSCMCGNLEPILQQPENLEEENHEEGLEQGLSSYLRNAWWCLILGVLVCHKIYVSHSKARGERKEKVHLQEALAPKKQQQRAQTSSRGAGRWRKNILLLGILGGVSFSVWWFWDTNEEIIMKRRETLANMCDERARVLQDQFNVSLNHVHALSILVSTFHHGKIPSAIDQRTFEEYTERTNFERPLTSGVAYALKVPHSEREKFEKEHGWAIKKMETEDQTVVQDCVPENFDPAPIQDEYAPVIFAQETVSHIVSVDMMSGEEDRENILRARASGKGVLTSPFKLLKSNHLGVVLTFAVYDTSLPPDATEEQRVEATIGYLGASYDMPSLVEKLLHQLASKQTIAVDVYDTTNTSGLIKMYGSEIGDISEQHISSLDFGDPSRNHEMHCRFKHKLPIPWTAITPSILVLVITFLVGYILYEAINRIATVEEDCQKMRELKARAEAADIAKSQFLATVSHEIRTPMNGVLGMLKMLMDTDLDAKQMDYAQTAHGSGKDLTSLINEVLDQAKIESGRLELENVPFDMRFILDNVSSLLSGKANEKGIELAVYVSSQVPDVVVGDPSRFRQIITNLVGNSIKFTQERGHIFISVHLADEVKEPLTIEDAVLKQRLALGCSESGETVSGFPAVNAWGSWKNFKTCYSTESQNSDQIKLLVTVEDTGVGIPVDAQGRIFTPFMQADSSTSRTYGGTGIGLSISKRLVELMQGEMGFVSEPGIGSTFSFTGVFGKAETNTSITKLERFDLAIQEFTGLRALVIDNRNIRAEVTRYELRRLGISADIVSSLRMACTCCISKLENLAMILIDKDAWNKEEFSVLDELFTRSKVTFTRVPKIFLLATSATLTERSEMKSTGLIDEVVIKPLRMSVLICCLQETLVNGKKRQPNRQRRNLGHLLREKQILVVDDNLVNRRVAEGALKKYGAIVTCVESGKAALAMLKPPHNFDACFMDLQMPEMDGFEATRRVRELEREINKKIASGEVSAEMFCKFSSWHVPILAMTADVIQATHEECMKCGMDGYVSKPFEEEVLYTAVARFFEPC
Experimental: as §1, §2

cytokinin receptor CRE1, sequence (Q9C5U0 24-1080 S567G/T1018A): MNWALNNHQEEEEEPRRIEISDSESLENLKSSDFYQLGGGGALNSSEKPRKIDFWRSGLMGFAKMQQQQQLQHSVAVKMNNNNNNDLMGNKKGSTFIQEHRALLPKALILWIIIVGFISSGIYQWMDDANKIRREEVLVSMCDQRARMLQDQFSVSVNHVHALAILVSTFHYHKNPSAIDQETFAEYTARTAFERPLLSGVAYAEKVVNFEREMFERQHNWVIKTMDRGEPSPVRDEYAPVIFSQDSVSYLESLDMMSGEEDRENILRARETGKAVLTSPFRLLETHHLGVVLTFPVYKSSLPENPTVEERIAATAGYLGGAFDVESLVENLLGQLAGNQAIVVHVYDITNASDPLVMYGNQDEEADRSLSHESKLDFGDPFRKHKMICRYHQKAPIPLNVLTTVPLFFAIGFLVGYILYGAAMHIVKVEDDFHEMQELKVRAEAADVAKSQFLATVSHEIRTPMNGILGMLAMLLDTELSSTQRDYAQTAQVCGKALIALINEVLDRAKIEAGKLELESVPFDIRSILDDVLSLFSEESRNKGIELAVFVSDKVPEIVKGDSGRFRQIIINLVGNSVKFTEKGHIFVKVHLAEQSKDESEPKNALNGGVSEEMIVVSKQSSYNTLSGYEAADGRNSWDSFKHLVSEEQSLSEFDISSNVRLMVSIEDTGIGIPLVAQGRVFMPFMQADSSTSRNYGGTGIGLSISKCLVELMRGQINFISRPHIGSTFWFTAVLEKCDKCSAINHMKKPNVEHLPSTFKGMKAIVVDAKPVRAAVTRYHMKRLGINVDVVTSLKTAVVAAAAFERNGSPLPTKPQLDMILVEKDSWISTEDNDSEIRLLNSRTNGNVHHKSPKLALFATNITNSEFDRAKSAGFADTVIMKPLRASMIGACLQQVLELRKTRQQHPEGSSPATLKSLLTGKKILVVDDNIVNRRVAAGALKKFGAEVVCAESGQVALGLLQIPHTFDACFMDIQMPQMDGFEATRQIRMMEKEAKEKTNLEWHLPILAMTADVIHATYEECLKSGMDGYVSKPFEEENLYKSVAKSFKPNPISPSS

C/C(=C/CNc1ncnc2nc[nH]c12)CO [cis-zeatin]
lowest observed supply concentration in which the transformed cells could be grown (cytokinin receptor CRE1): no growth | lowest observed supply concentration in which the transformed cells could be grown (cytokinin receptor AHK2Δ): 1 µM | lowest observed supply concentration in which the transformed cells could be grown (cytokinin receptor AHK2): 10 µM
